We go through eight compounds from US20100056513A1, “STEREOSPECIFICALLY SUBSTITUTED BENZO[1,3]DIOXOLYL DERIVATIVES” (priority 2005, published 2010).

The subject of one test is NMRI mice. The experiment in a line: CP 55,940-induced hypothermia in NMRI mice. The test is classed as in vivo. To be noted: po, CP 55,940 0.3 mg/kg i.v.; for Hypothermia in NMRI mice ID50 or minimum effective dose (MED), result in words: highest dose 30 mg/kg. Here is the method:
Effect of CB1 Receptor Antagonist/Inverse Agonist on CP 55,940-Induced Hypothermia in NMRI Mice
Male NMRI mice were used in this study and were obtained from Research Consulting Company Ltd (RCC) of Füllinsdorf (Switzerland). Mice, weighing 30-31 g were used in this study. Ambient temperature is approximately 20-21° C. and relative humidity 55-65%. A 12 hours light-dark cycle is maintained in the rooms with all tests being performed during the light phase. Access to tap water and food are ad libitum.
All measurements were made between 12:00 am and 5:00 pm. Mice were brought in this environment and habituated for at least two hours before the start of the experiment. They had always free access to food and water. For each dose, 8 mice were used. Rectal body temperature measurements were recorded by mean of a rectal probe (RET2 of Physitemp) and digital thermometer (Digi-sense n°8528-20 of Cole Parmer, Chicago USA). The probe was inserted about 3.5 cm in each mouse.
The body temperature was taken 15 min before administration of either Vehicle or CB1 receptor antagonist/inverse agonist. 30 or 90 min after i.p. or p.o. administration of this compound, respectively, rectal body temperature was recorded in order to evaluate any influence of the compound itself. The CB receptor agonist CP 55,940 (0.3 mg/kg) was immediately administered intravenously, then 20 min after i.v. administration of CP 55940, body temperature was again measured.

Test [1] deals with T1, human cannabis CB1 receptor (Homo sapiens, UniProt P21554).
T1 construct: expressed in transfected cells; host or cells: human embryonic kidney (HEK) cells, Semliki Forest Virus system, membrane preparation
T1 sequence (P21554 whole entry): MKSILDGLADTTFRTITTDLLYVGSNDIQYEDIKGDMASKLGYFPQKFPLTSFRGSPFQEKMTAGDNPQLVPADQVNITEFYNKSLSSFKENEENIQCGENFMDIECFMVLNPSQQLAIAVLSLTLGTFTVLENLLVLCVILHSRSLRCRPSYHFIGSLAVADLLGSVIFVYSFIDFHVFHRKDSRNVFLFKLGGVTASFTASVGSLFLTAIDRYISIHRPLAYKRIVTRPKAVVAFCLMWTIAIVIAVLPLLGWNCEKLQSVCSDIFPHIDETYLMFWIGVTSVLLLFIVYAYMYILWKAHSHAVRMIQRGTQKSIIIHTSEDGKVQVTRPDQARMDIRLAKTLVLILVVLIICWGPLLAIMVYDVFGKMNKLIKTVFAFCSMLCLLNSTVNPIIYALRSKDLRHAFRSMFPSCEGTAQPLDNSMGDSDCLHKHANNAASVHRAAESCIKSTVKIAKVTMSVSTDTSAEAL
The test can be described thus: CB1 receptor affinity, [3H]-CP-55,940 radioligand binding on HEK cell membranes. As to the method:
The affinity of the compounds of the invention for cannabinoid CB1 receptors was determined using membrane preparations of human embryonic kidney (HEK) cells in which the human cannabis CB1 receptor is transiently transfected using the Semliki Forest Virus system in conjunction with [3H]-CP-55,940 as radioligand. After incubation of a freshly prepared cell membrane preparation with the [3H]-ligand, with or without addition of compounds of the invention, separation of bound and free ligand was performed by filtration over glassfiber filters. Radioactivity on the filter was measured by liquid scintillation counting.
The data is determined with the experimental conditions described in Devane et. al. Mol. Pharmacol. 34 (1988) 605-613.

Test [2] deals with obese Spague-Dawley rats fed a high fat diet. The experiment in a line: Body weight reduction in obese rats fed a high fat diet. The test is classed as in vivo. Conditions: over 17 days. The source says: In vivo efficacy in the hypothermia model translated into efficacy in a disease related model, namely body weight reduction in obese Spague-Dawley rats fed a high fat diet (in analogy to Vickers et al. Psychopharmacology 2003, 167, 103-11 for obese fa/fa rats).

The conditions of test [3]: doses of 10 and 20 mg daily; cited from earlier work.
[4] abbreviates: Table 2, read-out: CB1 receptor affinity IC50.
The mark [5] stands for this setting: Table 1, read-out: IC50 (affinity for the CB1 receptor).

Broadly, the IC50 is the point on the concentration scale where inhibition reaches its midpoint.

Read-outs that look alike come from different tables or passages of the source.

Regarding `O=C(c1cc2c(cc1F)OC(c1ccc(Cl)cc1)(c1ccc(Cl)cc1)O2)N1CCOCC1` [Meso-[2,2-Bis-(4-chloro-phenyl)-6-fluoro-benzo[1,3]dioxol-5-yl]-morpholin-4-yl-methanone, reference compound], in the test on NMRI mice, the “Hypothermia in NMRI mice ID50 or minimum effective dose (MED), result in words” value was “inactive at 30”. In addition, the IC50 in test [1] (setting [4]) was found to be 0.026 µM.
For `O=C(c1cc2c(cc1F)O[C@](c1ccc(F)cc1)(c1ccc(Cl)cc1Cl)O2)N1CCOCC1` [R-(+)-[2-(2,4-Dichloro-phenyl)-2-(4-fluoro-phenyl)-6-fluoro-benzo[1,3]dioxol-5-yl]-morpholin-4-yl-methanone], the concentration for half-maximal inhibition (IC50) in test [1] (setting [5]) was found to be 0.007 µM.
In the case of `O=C(c1cc2c(cc1F)O[C@](c1ccccc1F)(c1ccc(Cl)cc1Cl)O2)N1CCOCC1` [R-(+)[2-(2,4-Dichloro-phenyl)-6-fluoro-2-(2-fluoro-phenyl)-benzo[1,3]dioxol-5-yl]-morpholin-4-yl-methanone], the “Hypothermia in NMRI mice ID50” value in the test with NMRI mice was “ID50: 4.0 mg/kg po”. Moreover, the 50% inhibitory concentration (IC50) in test [1] (setting [5]) amounted to 0.005 µM.
Consider `O=C(c1cc2c(cc1F)O[C@](c1ccc(Cl)cc1)(c1ccc(Cl)cc1Cl)O2)N1CCOCC1` [R-(−)-[2-(4-Chloro-phenyl)-2-(2,4-dichloro-phenyl)-6-fluoro-benzo[1,3]dioxol-5-yl]-morpholin-4-yl-methanone], for which, in the test on NMRI mice, the “Hypothermia in NMRI mice ID50” value was “ID50: 1.6 mg/kg po”. The IC50 in test [1] (setting [5]) is 0.0025 µM. The compound also registered a BW reduction in test [2] (once daily 3 mg/kg po) of 9.7%.
On to `O=C(c1cc2c(cc1F)O[C@@](c1ccc(Cl)cc1)(c1ccc(Cl)cc1Cl)O2)N1CCOCC1` [S-(+)[2-(4-Chloro-phenyl)-2-(2,4-dichloro-phenyl)-6-fluoro-benzo[1,3]dioxol-5-yl]-morpholin-4-yl-methanone], for which the “Hypothermia in NMRI mice minimum effective dose (MED)” value in the test with NMRI mice was “MED: 10 mg/kg po”. Further, the IC50 in test [1] (setting [5]) and in test [1] (setting [4]) was 0.017 µM each time.
Take `O=C(c1cc2c(cc1F)O[C@@](c1ccccc1F)(c1ccc(Cl)cc1Cl)O2)N1CCOCC1` [S-(−)-[2-(2,4-dichloro-phenyl)-6-fluoro-2-(2-fluoro-phenyl)-benzo[1,3]dioxol-5-yl]-morpholin-4-yl-methanone]: the “Hypothermia in NMRI mice ID50 or minimum effective dose (MED), result in words” value with NMRI mice is “inactive at 30”. Besides, the concentration for half-maximal inhibition (IC50) in test [1] (setting [5]) turned out to be 0.033 µM.
As to `O=C(c1cc2c(cc1F)O[C@@](c1ccc(F)cc1)(c1ccc(Cl)cc1Cl)O2)N1CCOCC1` [S-(−)[2-(2,4-Dichloro-phenyl)-2-(4-fluoro-phenyl)-6-fluoro-benzo[1,3]dioxol-5-yl]-morpholin-4-yl-methanone], the IC50 in test [1] (setting [5]) is 0.075 µM.
For the compound `Cc1c(C(=O)NN2CCCCC2)nn(-c2ccc(Cl)cc2Cl)c1-c1ccc(Cl)cc1` [rimonabant, reference compound], in test [3], the “body weight compared to placebo” value is reported as “significantly reduced body weight”. The compound also showed a BW reduction in test [2] (once daily 10 mg/kg po) of 6.6%.
